Laboratory results from patent US10189794B2, “Heteroaryl compounds and uses thereof” (Celgene CAR LLC, priority 2013, dated 2019).
“Also recorded” adds a separate entry of the source. Where two headings read alike, the source gives them in different places.

Assays:
[1] = target: T1, pFGFR4 in MDA-MB-453 cells (Homo sapiens (Human), UniProt P22455, Y367C); assay: FGFR4 signaling (phospho-FGFR4) in MDA-MB-453 cells; format: cell-based; conditions: 1 hr treatment
Procedure: Huh7 cells were grown in DMEM (Invitrogen, Carlsbad, Calif.) supplemented with 10% FBS (Invitrogen) and 1% Penicillin-Streptomycin (P/S, Lonza, Walkersville, Md.).
For the MSD and ELISA assays, total FGFR4 antibodies were obtained from R&D Systems (Minneapolis, Minn.) and used at 1:500. For the immunoblotting (Western blotting) assay, total FGFR4 antibody was obtained from Santa Cruz (Santa Cruz, Calif.) and used at 1:1000. Phospho-FGFR antibodies were obtained from Cell Signaling (Danvers, Mass.) or R&D Systems and used at 1:1000. The phopho-FGFR antibody from Cell Signaling was used for immunoblotting, whereas the phopho-FGFR antibody from R&D was used for MSD and ELISA assays. Secondary antibodies were used at 1:10,000. The goat anti-mouse IgG IRDye 800CW antibody was obtained from LiCor Biosciences (Lincoln, Nebr.) and the goat anti-rabbit IgG Alexa Fluor 680 was obtained from Invitrogen. The anti-rabbit Sulfo-tag and anti-streptavidin Sulfo-tag antibodies was obtained from Meso Scale Discovery (Gaithersburg, Md.), and were used at 1:1000 and 1:5000, respectively.
For MDA-MB-453 cells signaling, cells were grown in 96-well poly-D-lysine plates (BD Bioscience, San Jose, Calif.) to 90% confluence, and were then incubated in low-serum (0.1% FBS) media for 16-18 hr. […] After treatment, the cells were washed with cold PBS (Invitrogen) and were immediately lysed by freeze/thawing 3× in 32 μL of cold Cell Extraction Buffer (Invitrogen) which was supplemented with Complete Protease inhibitors (Roche, Indianapolis, Ind.) and PhosphoSTOP (Roche) phosphatase inhibitors.
Phospho-protein signals were quantitated using Odyssey Infrared Imaging (Li-Cor Biosciences).
To assess phospho-FGFR signaling, the blots were probed with anti-Phospho-FGFR (Y653/Y654) and total anti-FGFR antibodies. The phospho-FGFR signal was normalized to total FGFR expression for each sample. […] The normalized data was fitted using a sigmoidal curve analysis program (Graph Pad Prism version 5) with variable Hill slope to determine the EC50 values.
After treatment, the cells were washed with cold PBS (Invitrogen), and were immediately lysed by freeze/thawing 3× in 32 μL of cold Cell Extraction Buffer (Invitrogen), which was supplemented with Complete Protease inhibitors (Roche) and PhosphoSTOP (Roche) phosphatase inhibitors.
MSD plates (Meso Scale Discovery) were coated with total FGFR-4 antibodies overnight at 4° C. A lysate (25 μL) was added to the MSD plate overnight at 4° C. The MSD signals were obtained by incubating with a phospho-FGFR antibody (R&D Systems) and an anti-rabbit sulfo-tag antibody (Meso Scale), for 2 hr at room temperature. […] The data was fitted using a sigmoidal curve analysis program (Graph Pad Prism version 5) with variable Hill slope to determine the EC50 values.
MDA-MB-453 cells were grown in 96-well poly-D-lysine plates (BD Bioscience, San Jose, Calif.) to 90% confluence. The cells were then incubated in low-serum (0.1% FBS) media for 16-18 hr. […] After treatment, the MDA-MB-453 cells were washed with cold PBS (Invitrogen) and were immediately lysed by freeze/thawing 3× in 32 μL of cold Cell Extraction Buffer (Invitrogen), which was supplemented with Complete Protease inhibitors (Roche) and PhosphoSTOP (Roche) phosphatase inhibitors.
Nunc-immuno plates (96-well; Sigma, St. Louis, Mo.) were coated with total FGFR-4 antibodies overnight at 4° C. A lysate (25 μL) was added to the plate for 2 hr at room temperature. A phospho-FGFR detection antibody (100 μL) was added per well for 2 hr at room temperature, followed by a goat anti-rabbit HRP antibody (100 μL) for 45 min. […] The data was fitted using a sigmoidal curve analysis program (Graph Pad Prism version 5) with variable Hill slope to determine the EC50 values.

[2] = target: FGFR4-WT (Homo sapiens (Human), UniProt P22455); assay: Omnia assay for potency assessment against FGFR4 enzyme; format: biochemical
FGFR4-WT, sequence (P22455 22-802): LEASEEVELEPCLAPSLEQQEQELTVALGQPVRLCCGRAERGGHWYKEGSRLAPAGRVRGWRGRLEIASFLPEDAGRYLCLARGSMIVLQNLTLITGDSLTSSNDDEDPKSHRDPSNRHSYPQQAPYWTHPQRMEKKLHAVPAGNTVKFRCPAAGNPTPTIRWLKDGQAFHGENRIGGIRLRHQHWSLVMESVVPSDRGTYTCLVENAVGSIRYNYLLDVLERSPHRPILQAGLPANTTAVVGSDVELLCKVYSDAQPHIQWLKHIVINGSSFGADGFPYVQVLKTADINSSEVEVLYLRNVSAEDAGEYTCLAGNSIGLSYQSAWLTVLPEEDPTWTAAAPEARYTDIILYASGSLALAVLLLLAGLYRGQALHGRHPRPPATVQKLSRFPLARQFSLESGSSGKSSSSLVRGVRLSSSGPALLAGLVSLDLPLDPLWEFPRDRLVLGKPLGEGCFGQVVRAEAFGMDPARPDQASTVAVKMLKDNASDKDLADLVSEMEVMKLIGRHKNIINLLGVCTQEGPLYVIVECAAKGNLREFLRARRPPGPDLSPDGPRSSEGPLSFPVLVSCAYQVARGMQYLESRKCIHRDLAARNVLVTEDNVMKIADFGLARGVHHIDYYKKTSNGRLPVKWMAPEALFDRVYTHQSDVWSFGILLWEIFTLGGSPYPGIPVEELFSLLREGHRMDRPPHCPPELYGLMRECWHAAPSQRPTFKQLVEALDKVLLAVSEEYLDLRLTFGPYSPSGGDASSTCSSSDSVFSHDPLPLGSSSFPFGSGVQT
Procedure: A 10× stock solution of FGFR4-WT (PR4380C), (from Invitrogen, Carlsbad, Calif.) corresponding to method a in Table 7, was prepared as described below. Alternatively, a 10× stock solution of FGFR4-WT (F01-11G), (SignalChem, Richmond, BC) corresponding to method b in Table 7, was prepared as described below. A solution of 1.4×ATP (AS001A) and 5×Tyr-Sox conjugated peptide substrate (KNZ3101) were prepared in IX kinase reaction buffer consisting of 20 mM Tris, pH 7.5, 5 mM MgCl2, 1 mM EGTA, 5 mM β-glycerophosphate, 5% glycerol (10× stock, KB002A) and 0.2 mM DTT (DS001A). […] The serially diluted compounds were prepared on a Tecan EVO100. A second addition of 10 μl of Tyr-Sox FGFR4 substrate was added to each well and the kinase reactions were started with the addition of 35 μL of 1.4×ATP. The reactions were monitored every 71 seconds for 240 minutes at λex360/λem485 in a Synergy plate reader from BioTek (Winooski, Vt.).

[3] = tested on: Huh7 cells; assay: Cell proliferation, Huh7 (CellTiter Glo); format: cell-based; conditions: Homo sapiens, Huh-7; Huh7; 120 hr; read-out: Cell Proliferation GI50 (nM) HUH
Procedure: The growth inhibition (GI50) values were determined by Graph Pad Prism.

[4] = target: pFGFR4 in Huh7 cells (Homo sapiens (Human), UniProt P22455); assay: FGFR4 signaling (phospho-FGFR4) in Huh7 cells, MSD; format: cell-based; conditions: Meso Scale assay (MSD), 1 hr treatment, read-out: Signaling EC50 (nM) pFGFR4 (Huh)
pFGFR4 in Huh7 cells, sequence (P22455 22-802): as above

[5] = tested on: MDA-MB-453 cells; assay: Cell proliferation, MDA-MB-453 (CellTiter Glo); format: cell-based; conditions: Homo sapiens; MDA-MB-453; 96 hr; read-out: Cell Proliferation GI50 (nM) MDA
Procedure: For both MDA-MB-453 and Huh7 cells the starting density was 5000 cells per well. The cells were allowed to settle down for 4 hr and were then treated with 5, 1.25, 0.31, 0.078, 0.020 or 0.005 μM of test compound for: 96 hr for MDA-MB-453 and 120 hr for Huh7 cells. Cell viability was determined by CellTiter Glo (Promega, Madison, Wis.) and the results were converted to cell numbers using a standard curve. The growth inhibition (GI50) values were determined by Graph Pad Prism.
The results of these experiments show the ability of compounds to inhibit cell growth in FGFR dependant cell lines and are depicted in Table 8, in the columns titled “Cell Proliferation GI50 (nM)”. MDA-MB-453 cell results fall under the heading “MDA” and Huh7 cell results fall under the heading “Huh.”

[6] = target: FGFR4 in MDA-MB-453 cells (Homo sapiens (Human), UniProt P22455, Y367C); assay: Target occupancy assay with biotinylated covalent probe I-127; format: cell-based; conditions: MDA-MB-453 lysate; 2 μM biotinylated probe I-127
FGFR4 in MDA-MB-453 cells, sequence (P22455 22-802 Y367C): as the sequence (P22455 22-802) above, with Y346C counted along it
Procedure: In order to assess free FGFR4 protein a biotinylated covalent probe was utilized. […] The reaction was incubated for 2 hr at room temperature. The samples and probe mixture were transferred to a FGFR4-coated MSD plate for 2 hr at room temperature. MSD signals were obtained with an anti-streptavidin Sulfo-tag (Meso Scale) antibody for 1 hr at room temperature.
If a compound completely (100%) covalently modies FGFR4 no free FGFR4 should be available for covalent modification by the biotinylated probe and subsequent binding to streptavidin and detection.

[7] = target: T1, pFGFR4 in MDA-MB-453 cells; assay: Washout experiment (duration of pFGFR4 inhibition); format: cell-based; conditions: 1000-2000 nM for 1 hr, washed, up to 24 hr
Procedure: The cells were allowed to settle down for 4 hrs and were then maintained in low-serum (0.1% FBS) media overnight.
The following morning, the media was removed and the cells were treated with 1000-2000 nM of test compound in low-serum media for 1 hr. The cells were washed free of test compound (3×) with PBS (Invitrogen). One set of cells was immediately lysed as indicated above as the 0 hr time point. The remaining cells were incubated with the appropriate complete growth media (10-20% FBS) for 1, 2, 4, 8, 16 (in certain circumstances) and 24 hr. DMSO (0.5%) controls were collected at all time points.

[8] = Method A immunoblotting (Western blotting)
[9] = method a: Invitrogen FGFR4-WT 10 nM, ATP 300 uM, Y10-Sox 10 uM, read-out: FGFR4 IC50

T1 sequence (P22455 22-802 Y367C): as the sequence (P22455 22-802) above, with Y346C counted along it

SMILES | GI50 [3] [nM] | IC50 [2, 9] [nM] | EC50 [4] [nM] | GI50 [5] [nM] | EC50 [6] [nM] | also measured
C=CC(=O)Nc1cccc(Nc2ncc3c(n2)N(Cc2cccc(NC(=O)CC)c2)C(=O)N(c2c(Cl)c(OC)cc(OC)c2Cl)C3)c1 [I-232] | – | – | – | – | – | EC50 [1, 8]: < 100 nM; IC50 ([2]; read-out: FGFR4 IC50): < 100 nM
C=CC(=O)NC1CCCCC1Nc1ncc2c(n1)N(C)C(=O)N(c1cc(OC)cc(OC)c1Cl)C2 (racemic) [I-76] | > 1000 | 501 to 999 | > 1000 | – | – | –
C=CC(=O)Nc1cc(N2CCN(C(C)=O)CC2)ccc1Nc1ccc2c(c1)N(C)C(=O)N(c1cc(OC)cc(OC)c1)C2 [I-55] | 101 to 500 | < 100 | – | 101 to 500 | 101 to 500 | –
C=CC(=O)NC1CCCCC1Nc1ncc2c(n1)N(CC#N)C(=O)N(c1c(Cl)c(OC)cc(OC)c1Cl)C2 (racemic) [I-47] | > 1000 | < 100 | 501 to 999 | – | – | –
C=CC(=O)NC1CCCCC1Nc1ncc2c(n1)N(CC(F)F)C(=O)N(c1c(Cl)c(OC)cc(OC)c1Cl)C2 (racemic) [I-105] | 501 to 999 | 101 to 500 | 101 to 500 | – | – | –
C=CC(=O)NC1CCCCC1Nc1ncc2c(n1)N(CC(F)F)C(=O)N(c1cc(OC)cc(OC)c1Cl)C2 (racemic) [I-107] | > 1000 | > 1000 | > 1000 | – | – | –
C=CC(=O)Nc1ccccc1CNc1ncc2c(n1)N(Cc1cccc(NC(=O)CC)c1)C(=O)N(c1c(Cl)c(OC)cc(OC)c1Cl)C2 [I-180] | – | – | – | – | – | EC50 ([1]; Method C ELISA): < 100 nM
CCC(=O)Nc1cccc(CN2C(=O)N(c3c(Cl)c(OC)cc(OC)c3Cl)Cc3cnc(Nc4ccccc4NC(=O)CC)nc32)c1 [I-234] | – | – | – | > 1000 | > 1000 | EC50 [1, 8]: 101 to 500 nM; duration of action against pFGFR4 signalling after washout [7]: does not show prolonged duration of action; also recorded: does not have PDA
C=CC(=O)NC1CCCCC1Nc1ncc2c(n1)N(CCOC)C(=O)N(c1c(Cl)c(OC)cc(OC)c1Cl)C2 (racemic) [I-61] | 501 to 999 | < 100 | 101 to 500 | 101 to 500 | 101 to 500 | –
C=CC(=O)NC1CCCCC1Nc1ncc2c(n1)N(Cc1cccnc1)C(=O)N(c1c(Cl)c(OC)cc(OC)c1Cl)C2 (racemic) [I-35] | 501 to 999 | < 100 | – | 101 to 500 | 101 to 500 | –
C=CC(=O)Nc1ccccc1Nc1ncc2c(n1)N(C)C(=O)N(c1cc(OC)cc(OC)c1)C2 [I-5] | > 1000 | – | – | 501 to 999 | 101 to 500 | –
C=CC(=O)N[C@H]1CCCC[C@H]1Nc1ncc2c(n1)N(Cc1cscn1)C(=O)N(c1c(Cl)c(OC)cc(OC)c1Cl)C2 [I-114] | 101 to 500 | – | – | 101 to 500 | 101 to 500 | IC50 ([2]; read-out: FGFR4 IC50): < 100 nM
C=CC(=O)Nc1ccccc1Nc1ncc2c(n1)N(CCOC)C(=O)N(c1cc(OC)cc(OC)c1)C2 [I-59] | > 1000 | – | – | 501 to 999 | 101 to 500 | –
C=CC(=O)NC1CCCCC1Nc1ncc2c(n1)N(CCF)C(=O)N(c1cc(OC)cc(OC)c1Cl)C2 (racemic) [I-111] | > 1000 | 501 to 999 | > 1000 | – | – | –
C=CC(=O)Nc1ccccc1Nc1ncc2c(n1)N(Cc1cccc(NC(=O)CC)c1)C(=O)N(c1c(Cl)c(OC)cc(OC)c1Cl)C2 [I-1] | 101 to 500 | < 100 | < 100 | < 100 | < 100 | duration of action against pFGFR4 signalling after washout [7]: prolonged duration of action; also recorded: has PDA
C=CC(=O)NC1CCCCC1Nc1ncc2c(n1)N(C1CC1)C(=O)N(c1c(Cl)c(OC)cc(OC)c1Cl)C2 (racemic) [I-68] | > 1000 | 101 to 500 | 501 to 999 | > 1000 | – | –
C=CC(=O)Nc1ccccc1Nc1ncc2c(n1)N(Cc1ccc(F)cc1)C(=O)N(c1c(Cl)c(OC)cc(OC)c1Cl)C2 [I-25] | 501 to 999 | – | – | < 100 | 101 to 500 | –
C=CC(=O)NCc1ccccc1Nc1ncc2c(n1)N(Cc1cccc(NC(=O)CC)c1)C(=O)N(c1c(Cl)c(OC)cc(OC)c1Cl)C2 [I-179] | 101 to 500 | – | – | 101 to 500 | – | EC50 [1, 8]: < 100 nM
C=CC(=O)Nc1ccccc1Nc1ncc2c(n1)N(C)C(=O)N(c1c(Cl)c(OC)cc(OC)c1Cl)C2 [I-2] | 101 to 500 | – | – | < 100 | – | EC50 [1, 8]: < 100 nM
C=CC(=O)NC1CCCCC1Nc1ncc2c(n1)N(Cc1ccccc1)C(=O)N(c1c(Cl)c(OC)cc(OC)c1Cl)C2 (racemic) [I-63] | 101 to 500 | – | – | 101 to 500 | 101 to 500 | IC50 [2]: < 100 nM
C=CC(=O)Nc1ccc(Nc2ncc3c(n2)N(Cc2cccc(NC(=O)CC)c2)C(=O)N(c2c(Cl)c(OC)cc(OC)c2Cl)C3)cc1 [I-233] | – | – | – | – | – | EC50 [1, 8]: < 100 nM; IC50 ([2]; method b: SignalChem FGFR4-WT 2.5 nM, ATP 250 uM, Y10-Sox 10 uM, read-out: FGFR4 IC50): < 100 nM
C=CC(=O)Nc1ccccc1Nc1ncc2c(n1)N(Cc1ccccc1)C(=O)N(c1c(Cl)c(OC)cc(OC)c1Cl)C2 [I-3] | < 100 | – | – | < 100 | < 100 | EC50 ([1]; Method C ELISA): < 100 nM
C=CC(=O)NC1CCCCC1Nc1ncc2c(n1)N(Cc1cscn1)C(=O)N(c1c(Cl)c(OC)cc(OC)c1Cl)C2 (racemic) [I-69] | 501 to 999 | < 100 | – | 101 to 500 | – | duration of action against pFGFR4 signalling after washout [7]: prolonged inhibition of autophosphorylation of FGFR4; also recorded: prolonged duration of action
